Data published in PubChem BioAssay (NCI).
“And” between values parts separate entries of the source, which are not always exact repeats. Equal entries are not always repeated.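 Grown in 96-well plates, cells were treated for 48 hours with each compound at five concentrations. Insufficient inhibition: endpoint recorded as highest concentration tested. Here, GI50 denotes the concentration required for 50% inhibition of growth. TGI: total growth inhibition.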

Experiments:
Experiment in all cases: NCI tumour cell line growth inhibition, 48 h
A549 NSCLC = tested on: A549 NSCLC
MCF7 breast = tested on: MCF7 breast
NCI-H460 lung = tested on: NCI-H460 lung
NCI-H522 lung = tested on: NCI-H522 lung
SF-539 CNS = tested on: SF-539 CNS
SNB-75 CNS = tested on: SNB-75 CNS
HL-60(TB) leukemia = tested on: HL-60(TB) leukemia
SR leukemia = tested on: SR leukemia

Structure (SMILES)	GI50 (A549 NSCLC) [µM]	TGI (A549 NSCLC)	GI50 (MCF7 breast)	TGI (MCF7 breast)	GI50 (NCI-H460 lung)	TGI (NCI-H460 lung)	GI50 (NCI-H522 lung)	TGI (NCI-H522 lung) [µM]	GI50 (SF-539 CNS)	TGI (SF-539 CNS)	GI50 (SNB-75 CNS) [µM]	TGI (SNB-75 CNS) [µM]	GI50 (HL-60(TB) leukemia)	TGI (HL-60(TB) leukemia)	GI50 (SR leukemia)	TGI (SR leukemia)
O=C(Cc1csc2nc(-c3ccc(Br)cc3)cn12)N/N=C/c1ccc(Cl)cc1Cl	16.8	37.5 µM	> 100 µM	> 100 µM	> 100 µM	> 100 µM	25.8 µM	> 100	27.2 µM	63.8 µM	37.5	> 100				
COc1ccc(/C=C\c2cc(OC)c(OC)c(OC)c2)cc1OCC(=O)Nc1nc2ccccc2s1	0.31	> 100 µM	0.113 µM	> 100 µM	0.0476 µM	> 100 µM	0.049 µM	0.338	0.187 µM	> 100 µM	0.109	> 100	0.0275 µM	> 100 µM	0.0363 µM	> 100 µM
COc1ccc(-c2nnc(SCC(=O)Nc3ccc(C(=O)/C=C/c4cc(OC)c(OC)c(OC)c4)cc3)n2-c2ccccc2)cc1OC	4.33	> 10 µM	0.382 µM	> 10 µM	8.54 µM	> 10 µM			3.2 µM	> 10 µM	> 10	> 10	6.44 µM	> 10 µM	0.666 µM	> 10 µM
O=C(NO)c1ccc(Cn2c(=O)n(-c3ccccc3)c(=O)c3ccccc32)cc1	2.33	13.6 µM	1.73 µM	60.2 µM	1.44 µM	9.19 µM			0.693 µM	2.86 µM	1.88	5.35	2.66 µM	> 100 µM	1.68 µM	> 100 µM
COc1cnc2c(c1)C(=O)c1c-2n(CCCNCCN2CCOCC2)c(=O)c2cc([N+](=O)[O-])ccc12			0.0323 µM	10.2 µM	0.0411 µM	1.03 µM	0.0787 µM	1.38	0.311 µM	1.32 µM	0.265	10.7	0.104 µM	0.818 µM	0.0151 µM	1.02 µM
Cc1cc(NCc2cc(Nc3ccnc4cc(Cl)ccc34)ccc2F)nc(N2CCSCC2)n1	2.92	21.8 µM	1.64 µM	4.18 µM			1.96 µM	4.49	1.79 µM	3.35 µM	1.32	2.9				
CN(C)c1ccc2cc3ccc(N(C)C)cc3nc2c1		7.49 µM		11.5 µM		1.99 µM		7.56		6.53 µM		11.9		3.66 µM		
C[C@@H](Oc1cc(-n2cnc3ccc(OCC4CCN(C)CC4)cc32)sc1C(N)=O)c1ccccc1Cl	0.0919	2.93 µM	0.0123 µM	3.68 µM	0.0846 µM	3.04 µM	0.0382 µM	0.147	0.107 µM	1.62 µM	0.0898	1.81	0.044 µM	0.543 µM	0.0448 µM	0.697 µM
CN(C)c1ccc(Nc2c3ccccc3nc3cc(NC(=O)CCN4CCCC4)ccc23)cc1	0.0688	1.75 µM	0.0711 µM	1.61 µM	0.0423 µM	0.683 µM	0.541 µM	2.21	0.65 µM	1.92 µM	0.381	1.72	0.19 µM	0.763 µM	0.0421 µM	1.24 µM
CC[C@H]1CN(C)[C@H]2Cc3c([nH]c4ccccc34)C(=O)C[C@H]1C2C(=O)OC (stereo partly drawn)		> 100 µM		> 100 µM		> 100 µM		> 100		> 100 µM				> 100 µM		> 100 µM
O=C(c1nn(-c2ccc(Cl)cc2)cc1O)n1nc(C(F)(F)F)cc1-c1ccccc1	6.51	> 100 µM	3.38 µM	> 100 µM	0.767 µM	> 59.3 µM			2.7 µM	> 100 µM	0.816	> 100	2.42 µM	> 100 µM		
Fc1cccc(Cl)c1Cn1c(-c2c(F)cccc2Cl)nc2ccccc21	11.6	33.7 µM	20 µM	57.8 µM	13.1 µM	34.1 µM	13.3 µM	44.5	23.1 µM	46.2 µM	22.1	69.3	3.86 µM	74.6 µM		
CCOC(=O)c1ccc(N(C=O)CCC(=O)CCl)cc1	1.37	12.7 µM	0.0532 µM		0.355 µM	11.1 µM	0.138 µM	0.617	0.249 µM	0.778 µM	0.997	13.6	0.0438 µM	0.351 µM		
CCCCCCCCNC(C)C(O)c1ccc(SC(C)C)cc1 (stereo not drawn)			1.8 µM	3.32 µM	1.85 µM	3.56 µM	1.43 µM	2.95	1.9 µM	3.4 µM	1.72	3.26	2.2 µM	4.07 µM	1.99 µM	5.71 µM
O=C(O)c1cn(C2CC2)c2cc(N3CCNCC3)c(F)cc2c1=O	> 100	> 100 µM	> 100 µM	> 100 µM	> 100 µM	> 100 µM	> 100 µM	> 100								
COc1ccc(-n2cc(-c3cc(OC)c(OC)c(OC)c3)[nH]c2=S)cc1Cl	65.5	> 100 µM	68 µM	> 100 µM	18.9 µM	> 100 µM	> 100 µM	> 100	18.4 µM	48.8 µM	18.6	48.7	> 100 µM	> 100 µM		
COc1cc(C(=O)O/N=C(\N)Cc2cccc3ccccc23)cc(OC)c1OC	7.67	23.8 µM	2.57 µM	8.81 µM	2.78 µM	7.81 µM	1.87 µM	3.7	2.97 µM	10.4 µM	2.8	15.6	5.35 µM	36.5 µM		
c1ccc2cc(C[n+]3ccn(Cc4ccc5ccccc5n4)c3)ccc2c1		14.1 µM and 24.2 µM	0.353 µM and 2.98 µM	2.36 µM and 13.4 µM	0.456 µM and 3.74 µM	10.8 µM and 14.6 µM	0.275 µM and 2.3 µM		0.421 µM and 2.72 µM	11.4 µM and 13.8 µM			0.214 µM and 0.827 µM	0.653 µM and 3.05 µM	0.364 µM and 2.82 µM	2.16 µM and 13.7 µM
O=C1CC(c2ccsc2)c2snc(-c3ccc(Cl)cc3)c2N1 (stereo not drawn)	0.626	> 100 µM	0.563 µM	> 100 µM	0.581 µM	> 100 µM	0.626 µM	13.5	2.9 µM	> 100 µM	1.71	9.71	1.11 µM	3.33 µM		
COc1ccc2c(c1)C(=O)c1c-2c(N2CCN(C(=O)CNCCN(C)C)CC2)nc2ccccc12	2.22	10.1 µM	1.62 µM	3.11 µM	1.17 µM	2.55 µM	1.76 µM	3.44	1.6 µM	3.03 µM			2.4 µM	6.31 µM		
CCSc1ccc([C@@H]2[C@@H](N)C(=O)N2c2cc(OC)c(OC)c(OC)c2)cc1	0.108	> 100 µM	0.0392 µM	> 100 µM	0.0488 µM	> 100 µM	0.0238 µM	0.0966			0.0375	> 100	0.0257 µM	0.067 µM	0.0449 µM	> 100 µM
CC(C)=CC(=O)N[C@@H]1CC2CCC3C(CC[C@@]4(C)C3CC[C@@H]4C(C)N(C)C)[C@@]2(C)C[C@@H]1O (stereo partly drawn)	7.27	33.8 µM	2.95 µM	21.1 µM	2.53 µM	8.88 µM	7.47 µM	31.3	1.59 µM	3.36 µM	5.97	23.3	1.61 µM	6.14 µM		
CCOc1cc2c(=O)oc3c(OC)ccc4ccc(c1OC)c2c43		> 100 µM		> 100 µM		> 100 µM		90.7		> 100 µM		> 100		> 100 µM		
CC(=O)Nc1ccc(-c2csc(Nc3cccc(-c4csc(-c5ccccc5)n4)c3)n2)cc1	15.3	> 50 µM	20 µM	> 50 µM	18.8 µM	> 50 µM	24.2 µM	> 50	23.3 µM	> 50 µM			29.7 µM	> 50 µM	27.3 µM	> 50 µM
O=C(Cc1ccc(Nc2ccnc(C(F)(F)F)c2)cc1)Nc1cc(Cl)ccc1O	15.3	> 100 µM	4.99 µM	42.8 µM	6.92 µM	27.9 µM			7.18 µM	22 µM	11.9	37.5	1.7 µM	5.35 µM	2.45 µM	14.9 µM
O=C(Oc1ccccc1Cl)c1ccccc1Nc1cccc(C(F)(F)F)c1	36	> 100 µM	33.9 µM	> 100 µM	37.3 µM	> 100 µM	19.5 µM	52.4	22.1 µM	42.2 µM	43.1	> 100				
